Laboratory results: ChEMBL document CHEMBL5543137, “Design and Synthesis of Novel Ultralong-Acting Peptides as EDP-EBP Interaction Inhibitors for Pulmonary Fibrosis Treatment” (J Med Chem, 2024)
Activity calls are given as the source filed them. No cut-off for these calls is given here. Starred links: 1 amine or outer side, 2 acyl side, 3 side chain; linkers in the order of their positions; H or OH if unused. Non-standard residues stand in square brackets, D forms with d. Residues, ends and D or L forms follow the SMILES beside them. *: point of attachment. C20 diacid = O=C(O)CCCCCCCCCCCCCCCCCCC(=O)*; γGlu = O=C(O)[C@H](CCC(=O)[*:2])N[*:1]; Iva = CC[C@](C)(N)C(=O)O; PEG2 = NCCOCCOCCC(=O)O

Tests used:
[1] = system: A549; assay: Antifibrotic activity against TNFalpha-induced human A549 cells assessed as downregulation of Fn gene expression level at 10 uM incubated for 24 hrs by RT-qPCR analysis; assay type: functional, cell-based
[2] = system: Mus musculus; assay: Antifibrotic activity against BLM-induced sc dosed C57BL/6 mouse pulmonary fibrosis model assessed as reversal of body weight indices administered for 2 weeks starting from 7 days post BLM induction and measured after 21 days post BLM induction; assay type: functional, organism-based; conditions: dose 30-240 µg/kg
[3] = system: Mus musculus; assay: Antifibrotic activity against BLM-induced sc dosed C57BL/6 mouse pulmonary fibrosis model assessed as reversal of lung indices administered for 2 weeks starting from 7 days post BLM induction and measured after 21 days post BLM induction; assay type: functional, organism-based; conditions: dose 30-240 µg/kg
[4] = system: A549; assay: Inhibition of EBP signaling pathway in TGFalpha induced human A549 cells assessed as reduction in AKT phosphorylation at 10 uM incubated for 24 hrs by Western blotting analysis; assay type: cell-based
[5] = system: Mus musculus; assay: Antifibrotic activity against BLM-induced C57BL/6 mouse pulmonary fibrosis model assessed as reduction in Col1a1 gene expression at 240 ug/kg/day, sc administered for 2 weeks starting from 7 days post BLM induction and measured after 21 days post BLM induction by ScRNA-sequencing analysis; assay type: functional, organism-based; conditions: dose 240.0 µg/kg/day
[6] = system: Mus musculus; assay: Antifibrotic activity against BLM-induced C57BL/6 mouse pulmonary fibrosis model assessed as reduction in Dcn gene expression at 240 ug/kg/day, sc administered for 2 weeks starting from 7 days post BLM induction and measured after 21 days post BLM induction by ScRNA-sequencing analysis; assay type: functional, organism-based; conditions: dose 240.0 µg/kg/day
[7] = system: A549; assay: Inhibition of EBP signaling pathway in TGFalpha induced human A549 cells assessed as reduction in ERK phosphorylation at 10 uM incubated for 24 hrs by Western blotting analysis; assay type: cell-based
[8] = system: Mus musculus; assay: Antifibrotic activity against BLM-induced C57BL/6 mouse pulmonary fibrosis model assessed as reduction in lung alpha-SMA expression at 240 ug/kg/day, sc administered for 2 weeks starting from 7 days post BLM induction and measured after 21 days post BLM induction by Western blotting analysis; assay type: functional, organism-based; conditions: dose 240.0 µg/kg/day
[9] = system: Mus musculus; assay: Antifibrotic activity against BLM-induced C57BL/6 mouse pulmonary fibrosis model assessed as reduction in Col1a2 gene expression at 240 ug/kg/day, sc administered for 2 weeks starting from 7 days post BLM induction and measured after 21 days post BLM induction by ScRNA-sequencing analysis; assay type: functional, organism-based; conditions: dose 240.0 µg/kg/day
[10] = system: Mus musculus; assay: Antifibrotic activity against BLM-induced C57BL/6 mouse pulmonary fibrosis model assessed as increase in ECM degradation at 240 ug/kg/day, sc administered for 2 weeks starting from 7 days post BLM induction and measured after 21 days post BLM induction by gene enrichment analysis; assay type: functional, organism-based; conditions: dose 240.0 µg/kg/day
[11] = system: A549; assay: Antifibrotic activity against BLM-induced human A549 cells assessed as reduction in MMP-12 expression at 10 uM after 24 hrs by Western blotting analysis; assay type: functional, cell-based
[12] = Tmax in Sprague-Dawley rat serum at 0.04 mg/kg, sc administered as single dose measured upto 10 days by LC-MS/MS method; assay type: ADME, organism-based; conditions: time < 10 day
[13] = system: Mus musculus; assay: Antifibrotic activity against BLM-induced C57BL/6 mouse pulmonary fibrosis model assessed as downregulation of IL-6 gene expression in lung tissue at 150 ug/kg, sc administered for 2 weeks starting from 7 days post BLM induction and measured after 21 days post BLM induction by RT-qPCR assay; assay type: functional, organism-based; conditions: dose 150.0 µg/kg
[14] = system: Mus musculus; assay: Antifibrotic activity against BLM-induced C57BL/6 mouse pulmonary fibrosis model assessed as reduction in FN expression at 240 ug/kg/day, sc administered for 2 weeks starting from 7 days post BLM induction and measured after 21 days post BLM induction in presence of Clo-Lip; assay type: functional, organism-based; conditions: dose 240.0 µg/kg/day
[15] = system: Mus musculus; assay: Antifibrotic activity against BLM-induced C57BL/6 mouse pulmonary fibrosis model assessed as reduction in Vimentin expression at 240 ug/kg/day, sc administered for 2 weeks starting from 7 days post BLM induction and measured after 21 days post BLM induction in presence of Clo-Lip; assay type: functional, organism-based; conditions: dose 240.0 µg/kg/day
[16] = system: A549; assay: Antifibrotic activity against BLM-induced human A549 cells cocultured with RAW264.7 cells assessed as reduction in Vimentin expression at 10 uM after 24 hrs by Western blotting analysis; assay type: functional, cell-based
[17] = system: Mus musculus; assay: Antifibrotic activity against BLM-induced C57BL/6 mouse pulmonary fibrosis model assessed as downregulation of Acta2 gene expression in lung tissue at 150 ug/kg, sc administered for 2 weeks starting from 7 days post BLM induction and measured after 21 days post BLM induction by RT-qPCR assay; assay type: functional, organism-based; conditions: dose 150.0 µg/kg
[18] = system: Mus musculus; assay: Antifibrotic activity against BLM-induced C57BL/6 mouse pulmonary fibrosis model assessed as reduction in proportion of fibroblasts at 240 ug/kg/day, sc administered for 2 weeks starting from 7 days post BLM induction and measured after 21 days post BLM induction; assay type: functional, organism-based; conditions: dose 240.0 µg/kg/day
[19] = organism: Homo sapiens; assay: Inhibition of neuraminidase (unknown origin) at 0.005 to 500 uM; conditions: dose 0.005-500 µM
[20] = system: A549; assay: Antifibrotic activity against TNFalpha-induced human A549 cells assessed as downregulation of Fn expression level at 10 uM incubated for 24 hrs by Western blotting analysis; assay type: functional, cell-based
[21] = system: Mus musculus; assay: Antifibrotic activity against BLM-induced C57BL/6 mouse pulmonary fibrosis model assessed as reduction in lung vimentin expression at 240 ug/kg/day, sc administered for 2 weeks starting from 7 days post BLM induction and measured after 21 days post BLM induction by Western blotting analysis; assay type: functional, organism-based; conditions: dose 240.0 µg/kg/day
[22] = system: RAW264.7; assay: Antifibrotic activity against BLM-induced mouse RAW264.7 cells assessed as upregulation of MMP-12 mRNA expression at 10 uM incubated for 6 to 24 hrs by RT-qPCR analysis; assay type: functional, cell-based; conditions: time 6-24 hrs
[23] = system: Mus musculus; assay: Antifibrotic activity against BLM-induced C57BL/6 mouse pulmonary fibrosis model assessed as inhibition of activated fibroblast signature at 240 ug/kg/day, sc administered for 2 weeks starting from 7 days post BLM induction and measured after 21 days post BLM induction by gene enrichment analysis; assay type: functional, organism-based; conditions: dose 240.0 µg/kg/day
[24] = system: RAW264.7; assay: Antifibrotic activity against BLM-induced mouse RAW264.7 cells assessed as upregulation of MMP-12 expression at 10 uM incubated for 6 to 24 hrs by ELISA; assay type: functional, cell-based; conditions: time 6-24 hrs
[25] = system: Mus musculus; assay: Antifibrotic activity against BLM-induced C57BL/6 mouse pulmonary fibrosis model assessed as increase in serum MMP-12 level at 30 to 240 ug/kg/day, sc administered for 2 weeks starting from 7 days post BLM induction and measured after 21 days post BLM induction; assay type: functional, organism-based; conditions: dose 30-240 µg/kg/day
[26] = system: TC-1; assay: Inhibition of EBP signaling pathway in TGFalpha induced mouse TC-1 cells assessed as reduction in ERK phosphorylation at 10 uM incubated for 24 hrs by Western blotting analysis; assay type: cell-based
[27] = system: Mus musculus; assay: Antifibrotic activity against BLM-induced C57BL/6 mouse pulmonary fibrosis model assessed as reduction in Eln gene expression at 240 ug/kg/day, sc administered for 2 weeks starting from 7 days post BLM induction and measured after 21 days post BLM induction by ScRNA-sequencing analysis; assay type: functional, organism-based; conditions: dose 240.0 µg/kg/day
[28] = system: A549; assay: Antifibrotic activity against BLM-induced human A549 cells assessed as reduction in FN expression at 10 uM after 24 hrs by Western blotting analysis; assay type: functional, cell-based
[29] = system: Mus musculus; assay: Antifibrotic activity against BLM-induced C57BL/6 mouse pulmonary fibrosis model assessed as reduction in fibrotic accumulation in lungs at 150 ug/kg, sc administered for 2 weeks starting from 7 days post BLM induction and measured after 21 days post BLM induction by immunohistochemical staining based assay; assay type: functional, organism-based; conditions: dose 150.0 µg/kg

CC[C@](C)(NC(=O)[C@@H](NC(=O)CCOCCOCCNC(=O)CCOCCOCCNC(=O)CC[C@H](NC(=O)CCCCCCCCCCCCCCCCCCC(=O)O)C(=O)O)C(C)C)C(=O)NCC(=O)N[C@@H](CO)C(=O)N1CCC[C@H]1C(=O)N[C@@H](CO)C(=O)N[C@@H](C)C(=O)N[C@@H](CCC(N)=O)C(=O)N[C@@H](CCC(=O)O)C(=O)N[C@@H](CCC(=O)O)C(=O)N[C@@H](C)C(=O)N[C@@H](CO)C(=O)N1CCC[C@H]1C(=O)N[C@@H](C)C(N)=O ({C20 diacid-γGlu-PEG2-PEG2}-V[Iva]GSPSAQEEASPA-NH2)
Activity [1]: Active
Activity [2]: Dose-Dependent Effect
Activity [3]: Dose-Dependent Effect
inhibition [4]: Active
Activity [5]: Active
Activity [6]: Active
inhibition [7]: Active
Activity [8]: Active
Activity [9]: Active
Activity [10]: Active
Activity [11]: inactive
Tmax [12]: 24 h
Activity [13]: Active
Activity [14]: inactive
Activity [15]: inactive
Activity [16]: Active
Activity [17]: Active
Activity [18]: Active
inhibition [19]: Active
Activity [20]: Active
Activity [21]: Active
Activity [22]: Active
Activity [23]: Active
Activity [24]: Active
Activity [25]: Active
inhibition [26]: Active
Activity [27]: Active
Activity [28]: Active
Activity [29]: Active
